This note sets out measurements from patent US11370770B2, “3-arylindazoles as selective MEK4 inhibitors” (priority 2019, dated 2022).

A value given as a limit tells only on which side of the number the result lay.

For assay [1], the target named is MEK1 (Homo sapiens (Human), UniProt Q02750). Nature of the assay: MEK family profiling ADP-Glo, MEK1. The format is biochemical. The settings on record: Erk2 substrate; 0.6 μM ATP; read-out: IC50 MEK isoform 1. On the technique in general: ADP-Glo turns the ADP formed in a reaction into a luminescent signal.
Assay [2] has as its target MEK3 (Homo sapiens (Human), UniProt P46734). Nature of the assay: MEK family profiling ADP-Glo, MEK3. The format is biochemical. As to conditions: p38α substrate; 0.6 μM ATP; read-out: IC50 MEK isoform 3.
In assay [3] the target is MEK6 (Homo sapiens (Human), UniProt P52564). Nature of the assay: MEK family profiling ADP-Glo, MEK6. The format is biochemical. The settings on record: p38α substrate; 0.6 μM ATP; read-out: IC50 MEK isoform 6.
Assay [4] concerns the target MEK2 (Homo sapiens (Human), UniProt P36507). Nature of the assay: MEK family profiling ADP-Glo, MEK2. The format is biochemical. As to conditions: Erk2 substrate; 0.6 μM ATP; read-out: IC50 MEK isoform 2.
In assay [5] the target is MEK5 (Homo sapiens (Human), UniProt Q13163). Nature of the assay: MEK family profiling ADP-Glo, MEK5. The format is biochemical. As to conditions: Erk5 substrate; 0.6 μM ATP; read-out: IC50 MEK isoform 5.
Assay [6] addresses human MEK4 (Homo sapiens (Human), UniProt P45985). The assay is described as follows: MEK4 ADP-Glo kinase activity assay (p38α substrate). As to conditions: for IC50: p38α substrate, value with 95% confidence interval in brackets, read-out: MEK4-p38, IC50, μM [95% Cl]. It counts as biochemical.
Assay [7] has as its system PC3M cells. Nature of the assay: Scratch wound assay. The format is cell-based.

Chain of MEK2 (P36507 whole entry, canonical isoform): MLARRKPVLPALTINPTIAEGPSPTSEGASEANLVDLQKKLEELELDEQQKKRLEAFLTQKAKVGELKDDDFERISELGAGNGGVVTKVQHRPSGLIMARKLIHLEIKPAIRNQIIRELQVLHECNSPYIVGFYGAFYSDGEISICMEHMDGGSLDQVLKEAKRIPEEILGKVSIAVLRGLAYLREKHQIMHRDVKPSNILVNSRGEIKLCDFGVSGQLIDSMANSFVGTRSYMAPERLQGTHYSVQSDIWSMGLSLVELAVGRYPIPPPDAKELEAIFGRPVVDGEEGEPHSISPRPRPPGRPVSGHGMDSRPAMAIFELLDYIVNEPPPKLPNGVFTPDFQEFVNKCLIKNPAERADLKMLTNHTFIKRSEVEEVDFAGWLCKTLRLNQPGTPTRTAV
Chain of MEK5 (Q13163 whole entry, canonical isoform): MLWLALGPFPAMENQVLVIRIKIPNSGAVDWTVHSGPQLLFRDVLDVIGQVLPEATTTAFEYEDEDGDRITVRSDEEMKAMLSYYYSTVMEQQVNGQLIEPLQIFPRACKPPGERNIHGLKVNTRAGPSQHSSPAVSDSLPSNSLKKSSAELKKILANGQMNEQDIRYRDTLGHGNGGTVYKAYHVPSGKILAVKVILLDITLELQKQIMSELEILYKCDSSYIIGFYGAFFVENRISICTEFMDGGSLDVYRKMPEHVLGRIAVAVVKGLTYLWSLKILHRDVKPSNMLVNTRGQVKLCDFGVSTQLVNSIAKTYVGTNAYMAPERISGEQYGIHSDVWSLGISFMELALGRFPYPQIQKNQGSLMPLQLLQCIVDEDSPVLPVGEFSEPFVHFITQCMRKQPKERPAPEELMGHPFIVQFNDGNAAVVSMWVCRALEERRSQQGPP
Chain of MEK6 (P52564 whole entry, canonical isoform): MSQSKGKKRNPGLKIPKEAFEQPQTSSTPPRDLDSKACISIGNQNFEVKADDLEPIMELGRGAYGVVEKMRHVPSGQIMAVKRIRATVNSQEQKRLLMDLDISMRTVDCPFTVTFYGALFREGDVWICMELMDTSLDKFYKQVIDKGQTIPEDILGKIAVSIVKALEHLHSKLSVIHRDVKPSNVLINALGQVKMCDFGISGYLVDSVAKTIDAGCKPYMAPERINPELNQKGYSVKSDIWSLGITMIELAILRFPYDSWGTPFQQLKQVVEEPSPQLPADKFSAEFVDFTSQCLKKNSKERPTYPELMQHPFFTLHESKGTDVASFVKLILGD
Chain of MEK1 (Q02750 whole entry, canonical isoform): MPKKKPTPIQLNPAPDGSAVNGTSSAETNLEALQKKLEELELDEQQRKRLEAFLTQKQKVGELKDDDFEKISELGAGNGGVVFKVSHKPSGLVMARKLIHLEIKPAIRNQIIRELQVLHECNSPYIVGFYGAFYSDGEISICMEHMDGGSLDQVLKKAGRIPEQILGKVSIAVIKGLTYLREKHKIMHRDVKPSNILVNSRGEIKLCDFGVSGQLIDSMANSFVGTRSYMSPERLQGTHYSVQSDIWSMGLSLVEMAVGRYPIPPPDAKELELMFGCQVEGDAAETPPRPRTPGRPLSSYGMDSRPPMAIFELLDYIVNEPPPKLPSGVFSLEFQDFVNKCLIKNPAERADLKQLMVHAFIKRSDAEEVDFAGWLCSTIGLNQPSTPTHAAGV
Chain of MEK3 (P46734 whole entry, canonical isoform): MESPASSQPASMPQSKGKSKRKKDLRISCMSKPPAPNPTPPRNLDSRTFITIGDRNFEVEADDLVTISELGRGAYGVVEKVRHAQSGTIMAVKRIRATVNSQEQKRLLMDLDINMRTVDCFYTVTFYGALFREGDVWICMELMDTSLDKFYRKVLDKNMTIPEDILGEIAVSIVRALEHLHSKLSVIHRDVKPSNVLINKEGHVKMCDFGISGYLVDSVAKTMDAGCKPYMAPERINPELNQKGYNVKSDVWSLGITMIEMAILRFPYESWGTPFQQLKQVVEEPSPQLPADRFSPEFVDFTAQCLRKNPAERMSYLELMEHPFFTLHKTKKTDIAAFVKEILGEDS
Chain of human MEK4 (P45985 whole entry): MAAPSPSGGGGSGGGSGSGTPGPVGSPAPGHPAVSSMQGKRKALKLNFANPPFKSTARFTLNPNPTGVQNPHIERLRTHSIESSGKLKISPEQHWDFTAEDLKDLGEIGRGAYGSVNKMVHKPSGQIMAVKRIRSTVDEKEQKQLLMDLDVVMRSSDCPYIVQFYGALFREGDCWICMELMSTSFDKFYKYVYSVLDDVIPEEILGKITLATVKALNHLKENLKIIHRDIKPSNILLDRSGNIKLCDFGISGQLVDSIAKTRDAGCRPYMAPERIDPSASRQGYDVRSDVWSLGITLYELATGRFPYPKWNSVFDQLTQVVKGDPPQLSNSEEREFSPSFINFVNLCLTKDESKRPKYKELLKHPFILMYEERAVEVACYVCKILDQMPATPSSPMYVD

Usually IC50 stands for the concentration at which inhibition is half-maximal. As for `Cc1cccc2[nH]nc(-c3ccc(O)cc3)c12` [Compound 6b], the IC50 is 11 µM in assay [1]; > 27 µM in assay [2]; 21 µM in assay [3]; 15 µM in assay [4]; > 27 µM in assay [5].

Take `Clc1cccc2[nH]nc(-c3cccnc3)c12` [Compound 6e, 4-chloro-3-(pyridin-3-yl)-2H-indazole]: in assay [6], the IC50 was > 22 µM.

For `Fc1ccc2c(-c3ccc4c(c3)OCO4)n[nH]c2c1` [Compound 6ee, 3-(2H-1,3-benzodioxol-5-yl)-6-fluoro-2H-indazole], the IC50 in assay [1] is 6.6 µM; in assay [2], 21 µM; in assay [3] it was 5.8 µM; in assay [4], 9.3 µM; in assay [5] it was > 27 µM. Moreover, the “efficacy in wound scratch assay” value in assay [7] (10 μM) was “modest efficacy”; in assay [7] (25 μM), “performs better”. The “Percent Difference, DMSO vs. 10 uM inhibitor” value in assay [7] (PC3M cells, 10 μM, wound gap 0 vs 20 hrs) turned out to be 14.93%. The “Percent Difference, DMSO vs. 25 uM inhibitor” value in assay [7] (PC3M cells, 25 μM, wound gap 0 vs 20 hrs) amounted to 32.15%.

On to `CC(C)(O)c1cccc(-c2n[nH]c3cccc(Cl)c23)c1` [Compound 6g, 2-[3-(4-chloro-2H-indazol-3-yl)phenyl]propan-2-ol], for which the IC50 in assay [6] was > 22 µM.

`Oc1ccc(-c2n[nH]c3ccc(C(F)(F)F)cc23)cc1` [Compound 6j, 4-[5-(trifluoromethyl)-2H-indazol-3-yl]phenol]: the IC50 in assay [1] is 4.6 µM; in assay [3], 1.6 µM; in assay [4] it was 5.3 µM; in assay [5], > 27 µM.

As for `CC(C)(C)OC(=O)n1nc(-c2ccc(O)cc2)c2cc(C(F)(F)F)ccc21` [Compound 6k, tert-butyl 3-(4-hydroxyphenyl)-5-(trifluoromethyl)-1H-indazole-1-carboxylate], the IC50 in assay [6] was > 20 µM.

For `O=C(O)c1ccc(-c2n[nH]c3ccc(C(F)(F)F)cc23)cc1` [Compound 6n, 4-[5-(trifluoromethyl)-2H-indazol-3-yl]benzoic Acid], the 50% inhibitory concentration (IC50) in assay [1] was 10 µM; in assay [2], 2.9 µM; in assay [3], 6 µM; in assay [4] it was > 27 µM; in assay [5], > 27 µM.

In the case of `Cc1ccc2[nH]nc(-c3ccc(F)c(CO)c3)c2c1` [Compound 6o], the IC50 in assay [1] is 4 µM; in assay [2], 6 µM; in assay [3] it was 3.4 µM; in assay [4], 5.4 µM; in assay [5], > 27 µM.

Take `Cc1ccc2[nH]nc(-c3ccc4c(c3)OCO4)c2c1` [Compound 6p, 3-(2H-1,3-benzodioxol-5-yl)-5-methyl-2H-indazole]: the IC50 in assay [1] is 6.6 µM; in assay [2], 8.5 µM; in assay [3], 3.2 µM; in assay [4] it was 9.1 µM; in assay [5] it was 16 µM.

As to `Cc1ccc2[nH]nc(-c3ccc(O)cc3)c2c1` [Compound 6q, 4-(5-methyl-2H-indazol-3-yl)phenol], the IC50 in assay [1] came out at 7.7 µM; in assay [3], 2.2 µM; in assay [4] it was 7.2 µM; in assay [5], 25 µM.

In the case of `Cc1ccc2[nH]nc(-c3ccc(C(N)=O)cc3)c2c1` [Compound 6r, 4-(5-methyl-2H-indazol-3-yl)benzamide], the IC50 worked out at 3.9 µM in assay [1]; 4.1 µM in assay [2]; 2.1 µM in assay [3]; 6.1 µM in assay [4]; 19 µM in assay [5].

Regarding `Cc1ccc2[nH]nc(-c3ccc(C(=O)O)cc3)c2c1` [Compound 6s, 4-(5-methyl-2H-indazol-3-yl)benzoic Acid], the IC50 in assay [1] is 17 µM; in assay [2], 12 µM; in assay [3], 8.7 µM; in assay [4] it was > 27 µM; in assay [5] it was > 27 µM.

For the compound `COC(=O)c1ccc(-c2n[nH]c3cc(C(F)(F)F)ccc23)cc1` [Compound 6y, methyl 4-[6-(trifluoromethyl)-2H-indazol-3-yl]benzoate], the “MEK4 inhibition” value in assay [6] (SAR discussion of Table 1) is “completely inactive”. Further, the IC50 in assay [6] is > 20 µM.

As for `O=C(O)c1ccc(-c2n[nH]c3cc(C(F)(F)F)ccc23)cc1` [Compound 6z, 4-[6-(trifluoromethyl)-2H-indazol-3-yl]benzoic Acid], the IC50 in assay [1] was 17 µM; in assay [2], > 27 µM; in assay [3], 8.8 µM; in assay [4], > 27 µM; in assay [5], 0.35 µM.

With `O=c1c(-c2ccc(O)cc2)coc2cc(O)cc(O)c12` [Geni, genistein, reference compound], in assay [7] (PC3M cells, genistein 10 μM, wound gap 0 vs 20 hrs), the “Percent Difference, DMSO vs. Geni” value was found to be 33.45%.
